Source: paper PMC5218480 (PLoS ONE, 2017)

Tested on: MV-4-11 cells
Assay: Gene expression microarray analysis (Affymetrix PrimeView) and GSEA
Format: cell-based, human
Set-up: RFU PODN (11730768_x_at) / Fold change /veh PODN (11730768_x_at) / RFU LINC00158 (11744669_a_at) / Fold change /veh LINC00158 (11744669_a_at) / RFU DUSP10 (11751237_a_at) / Fold change /veh DUSP10 (11751237_a_at) / RFU ID3 (11757404_x_at) / Fold change /veh ID3 (11757404_x_at) / RFU PLEKHG5 (11737974_s_at) / Fold change /veh PLEKHG5 (11737974_s_at) / RFU LRRC4B (11730491_at) / Fold change /veh LRRC4B (11730491_at) / RFU GIMAP4 (11747438_a_at) / Fold change /veh GIMAP4 (11747438_a_at) / RFU KRT8 (11758183_x_at) / Fold change /veh KRT8 (11758183_x_at) / RFU CNN1 (11734310_a_at) / Fold change /veh CNN1 (11734310_a_at) / RFU VPS37D (11726825_at) / Fold change /veh VPS37D (11726825_at) / RFU C10orf10 (11716522_x_at) / Fold change /veh C10orf10 (11716522_x_at) / RFU KIR2DL2 /// KIR2DL4 /// KIR2DL5A /// KIR2DL5B /// KIR2DS1 /// KIR2DS2 /// KIR2DS3 /// KIR2DS4 /// KIR3DL3 /// KIR3DL3 /// KIR3DS1 (11738374_at) / Fold change /veh KIR2DL2 /// KIR2DL4 /// KIR2DL5A /// KIR2DL5B /// KIR2DS1 /// KIR2DS2 /// KIR2DS3 /// KIR2DS4 /// KIR3DL3 /// KIR3DL3 /// KIR3DS1 (11738374_at) / RFU C1QL1 (11718748_at) / Fold change /veh C1QL1 (11718748_at) / RFU TMPRSS4 (11747572_a_at) / Fold change /veh TMPRSS4 (11747572_a_at) / RFU HAMP (11756126_x_at) / Fold change /veh HAMP (11756126_x_at) / RFU RNFT2 (11725882_a_at) / Fold change /veh RNFT2 (11725882_a_at) / RFU NR4A2 (11747474_a_at) / Fold change /veh NR4A2 (11747474_a_at) / RFU ABCC12 (11746883_a_at) / Fold change /veh ABCC12 (11746883_a_at) / RFU TMEM136 (11760407_x_at) / Fold change /veh TMEM136 (11760407_x_at) / RFU CLDN22 /// WWC2 (11732394_at) / Fold change /veh CLDN22 /// WWC2 (11732394_at) / RFU HLA-DPB1 (11760878_x_at) / Fold change /veh HLA-DPB1 (11760878_x_at) / RFU SPINT1 (11716480_a_at) / Fold change /veh SPINT1 (11716480_a_at) / RFU GAP43 (11754022_s_at) / Fold change /veh GAP43 (11754022_s_at) / RFU A4GNT (11735810_at) / Fold change /veh A4GNT (11735810_at) / RFU PRB3 (11715151_x_at) / Fold change /veh PRB3 (11715151_x_at) / RFU TUBB4B (11761932_at) / Fold change /veh TUBB4B (11761932_at) / RFU CAPN14 (11732068_a_at) / Fold change /veh CAPN14 (11732068_a_at) / RFU TMCC2 (11721928_a_at) / Fold change /veh TMCC2 (11721928_a_at) / RFU IRGQ (11745062_a_at) / Fold change /veh IRGQ (11745062_a_at) / RFU FAM174B (11720279_a_at) / Fold change /veh FAM174B (11720279_a_at) / RFU TMPRSS4 (11748680_a_at) / Fold change /veh TMPRSS4 (11748680_a_at) / RFU FAM212B (11763350_a_at) / Fold change /veh FAM212B (11763350_a_at) / RFU PLEKHG5 (11743358_a_at) / Fold change /veh PLEKHG5 (11743358_a_at) / RFU ZSCAN30 (11745921_a_at) / Fold change /veh ZSCAN30 (11745921_a_at) / RFU CMKLR1 (11741424_a_at) / Fold change /veh CMKLR1 (11741424_a_at) / RFU LOC101060620 /// MAPK8IP1 (11723275_at) / Fold change /veh LOC101060620 /// MAPK8IP1 (11723275_at) / RFU SPTSSB (11747773_x_at) / Fold change /veh SPTSSB (11747773_x_at) / RFU PRSS12 (11739890_at) / Fold change /veh PRSS12 (11739890_at) / RFU BIN1 (11741810_x_at) / Fold change /veh BIN1 (11741810_x_at) / RFU WNT11 (11732464_a_at) / Fold change /veh WNT11 (11732464_a_at) / RFU C10orf10 (11716521_a_at) / Fold change /veh C10orf10 (11716521_a_at) / RFU C5orf56 (11738089_at) / Fold change /veh C5orf56 (11738089_at) / RFU CYB561 (11721691_x_at) / Fold change /veh CYB561 (11721691_x_at) / RFU ANKRD19P (11752326_a_at) / Fold change /veh ANKRD19P (11752326_a_at) / RFU OR2T12 /// OR2T33 /// OR2T8 (11738714_s_at) / Fold change /veh OR2T12 /// OR2T33 /// OR2T8 (11738714_s_at) / RFU VCAN (11748164_a_at) / Fold change /veh VCAN (11748164_a_at) / RFU JSRP1 (11732532_at) / Fold change /veh JSRP1 (11732532_at) / RFU KRTAP10-11 (11738290_x_at) / Fold change /veh KRTAP10-11 (11738290_x_at) / RFU MYO3A (11730013_a_at) / Fold change /veh MYO3A (11730013_a_at) / RFU EBF3 (11725865_a_at) / Fold change /veh EBF3 (11725865_a_at) / RFU CAMK2N1 (11719241_x_at) / Fold change /veh CAMK2N1 (11719241_x_at) / RFU C5orf56 (11738088_a_at) / Fold change /veh C5orf56 (11738088_a_at) / RFU OLFML3 (11715873_a_at) / Fold change /veh OLFML3 (11715873_a_at) / RFU LOC100653217 /// NTM (11731650_a_at) / Fold change /veh LOC100653217 /// NTM (11731650_a_at) / RFU MAPK11 (11762145_a_at) / Fold change /veh MAPK11 (11762145_a_at) / RFU FIZ1 (11724087_x_at) / Fold change /veh FIZ1 (11724087_x_at) / RFU OASL (11726364_x_at) / Fold change /veh OASL (11726364_x_at) / RFU SOX15 (11748057_x_at) / Fold change /veh SOX15 (11748057_x_at) / RFU CD79A (11719716_a_at) / Fold change /veh CD79A (11719716_a_at) / RFU HIST1H1D (11736915_at) / Fold change /veh HIST1H1D (11736915_at) / RFU CASKIN2 (11723855_a_at) / Fold change /veh CASKIN2 (11723855_a_at) / RFU LOC730098 (11760151_x_at) / Fold change /veh LOC730098 (11760151_x_at) / RFU OR4N2 (11742367_at) / Fold change /veh OR4N2 (11742367_at) / RFU PRRT2 (11749266_a_at) / Fold change /veh PRRT2 (11749266_a_at) / RFU SNX32 (11753110_a_at) / Fold change /veh SNX32 (11753110_a_at) / RFU CDHR5 (11726645_a_at) / Fold change /veh CDHR5 (11726645_a_at) / RFU RCAN1 (11760418_a_at) / Fold change /veh RCAN1 (11760418_a_at) / RFU FAM167A (11723789_a_at) / Fold change /veh FAM167A (11723789_a_at) / RFU FAM26E (11764081_at) / Fold change /veh FAM26E (11764081_at) / RFU ISYNA1 (11749810_s_at) / Fold change /veh ISYNA1 (11749810_s_at) / RFU ACY1 (11761880_at) / Fold change /veh ACY1 (11761880_at) / RFU 11764098_at / Fold change /veh 11764098_at / RFU SAMD14 (11745864_x_at) / Fold change /veh SAMD14 (11745864_x_at) / RFU NPB (11741838_a_at) / Fold change /veh NPB (11741838_a_at) / RFU TMPRSS6 (11731388_a_at) / Fold change /veh TMPRSS6 (11731388_a_at) / RFU KRTAP10-2 (11738614_at) / Fold change /veh KRTAP10-2 (11738614_at) / RFU ARHGAP8 /// PRR5-ARHGAP8 (11727945_x_at) / Fold change /veh ARHGAP8 /// PRR5-ARHGAP8 (11727945_x_at) / RFU KRTAP5-7 /// NADSYN1 (11734609_at) / Fold change /veh KRTAP5-7 /// NADSYN1 (11734609_at) / RFU RASL12 (11751679_a_at) / Fold change /veh RASL12 (11751679_a_at) / RFU CDKN2B (11736163_a_at) / Fold change /veh CDKN2B (11736163_a_at) / RFU PRF1 (11729649_at) / Fold change /veh PRF1 (11729649_at) / RFU, ZNF638 /// ZNF638-IT1 / Fold change vs veh, ZNF638 /// ZNF638-IT1 / RFU, PANK3 / Fold change vs veh, PANK3 / RFU, SH3YL1 / Fold change vs veh, SH3YL1 / RFU, ZEB2 / Fold change vs veh, ZEB2 / RFU, NRIP1 / Fold change vs veh, NRIP1 / RFU, PTTG1IP / Fold change vs veh, PTTG1IP / RFU, CAPN2 / Fold change vs veh, CAPN2 / RFU, MED14 / Fold change vs veh, MED14 / RFU, SNORA58 / Fold change vs veh, SNORA58 / RFU, C1orf63 / Fold change vs veh, C1orf63 / RFU, LRRFIP1 / Fold change vs veh, LRRFIP1 / RFU, NDUFAF7 / Fold change vs veh, NDUFAF7 / RFU, SLC12A2 / Fold change vs veh, SLC12A2 / RFU, IBTK / Fold change vs veh, IBTK / RFU, ESF1 / Fold change vs veh, ESF1 / Fold change vs veh, TMEM50B / RFU, TAOK1 / Fold change vs veh, TAOK1 / RFU, ACBD3 / Fold change vs veh, ACBD3 / RFU, TMA16 / Fold change vs veh, TMA16 / RFU, RWDD3 / Fold change vs veh, RWDD3 / RFU, BCAT1 / Fold change vs veh, BCAT1 / RFU, EDEM3 / Fold change vs veh, EDEM3 / RFU, TMEM33 / Fold change vs veh, TMEM33 / RFU, WDR75 / Fold change vs veh, WDR75 / RFU, AHCTF1 / Fold change vs veh, AHCTF1 / RFU, TFRC / Fold change vs veh, TFRC / RFU, ZDHHC17 / Fold change vs veh, ZDHHC17 / RFU, NOM1 / Fold change vs veh, NOM1 / RFU, ARL8B / Fold change vs veh, ARL8B / RFU, ZBTB11 / Fold change vs veh, ZBTB11 / RFU, TAMM41 / Fold change vs veh, TAMM41 / RFU, KIAA1704 /// LOC100996395 / Fold change vs veh, KIAA1704 /// LOC100996395 / RFU, ING1 / Fold change vs veh, ING1 / RFU, TRMT61B / Fold change vs veh, TRMT61B / RFU, FUBP3 / Fold change vs veh, FUBP3 / RFU, TP53 / Fold change vs veh, TP53 / RFU, TNKS2 / Fold change vs veh, TNKS2 / RFU, ZFP14 / Fold change vs veh, ZFP14 / RFU, ACTR2 / Fold change vs veh, ACTR2 / RFU, PPP3R1 / Fold change vs veh, PPP3R1 / RFU, PIK3R1 / Fold change vs veh, PIK3R1 / RFU, HNRNPA1 / Fold change vs veh, HNRNPA1 / RFU, RNF170 / Fold change vs veh, RNF170 / RFU, ZNF28 / Fold change vs veh, ZNF28 / RFU, RNGTT / Fold change vs veh, RNGTT / RFU, OGT / Fold change vs veh, OGT / RFU, BRD1 / Fold change vs veh, BRD1 / RFU, MARS / Fold change vs veh, MARS / RFU, ZNF655 / Fold change vs veh, ZNF655 / RFU, FAHD1 / Fold change vs veh, FAHD1 / RFU, BDP1 / Fold change vs veh, BDP1 / RFU, LRRCC1 / Fold change vs veh, LRRCC1 / RFU, ARID1A / Fold change vs veh, ARID1A / RFU, ZNF146 / Fold change vs veh, ZNF146 / RFU, ZNF330 / Fold change vs veh, ZNF330 / RFU, GPN3 / Fold change vs veh, GPN3 / RFU, C9orf123 / Fold change vs veh, C9orf123 / RFU, N4BP2L2 / Fold change vs veh, N4BP2L2 / RFU, ARFIP1 / Fold change vs veh, ARFIP1 / RFU, FAM179B / Fold change vs veh, FAM179B / RFU, BCL10 / Fold change vs veh, BCL10 / RFU, UHRF1BP1L / Fold change vs veh, UHRF1BP1L / RFU, BET1 / Fold change vs veh, BET1 / RFU, CNOT2 / Fold change vs veh, CNOT2 / RFU, ZNF268 / Fold change vs veh, ZNF268 / Fold change vs veh, ZNF507 / RFU, DGCR2 / Fold change vs veh, DGCR2 / RFU, WDSUB1 / Fold change vs veh, WDSUB1 / Fold change vs veh, HSP90B1 /// MIR3652 / RFU, ADSS / Fold change vs veh, ADSS / RFU, GK / Fold change vs veh, GK / RFU, ZNF148 / Fold change vs veh, ZNF148 / RFU, TAF9 / Fold change vs veh, TAF9 / RFU, SLC1A5 / Fold change vs veh, SLC1A5 / RFU, SLMO2 / Fold change vs veh, SLMO2 / RFU, ABCC4 / Fold change vs veh, ABCC4 / RFU, LOC101060439 /// RAP1B / Fold change vs veh, LOC101060439 /// RAP1B / RFU, RFX7 / Fold change vs veh, RFX7 / RFU, GTPBP10 / Fold change vs veh, GTPBP10 / RFU, CNEP1R1 / Fold change vs veh, CNEP1R1 / RFU, BIVM-ERCC5 /// ERCC5 / Fold change vs veh, BIVM-ERCC5 /// ERCC5 / RFU, ILF3 / Fold change vs veh, ILF3 / RFU 11762660_at / Fold change /veh 11762660_at / RFU VCAN (11757783_s_at) / Fold change /veh VCAN (11757783_s_at) / RFU DDX43 (11728927_at) / Fold change /veh DDX43 (11728927_at) / RFU KRT8 (11758188_x_at) / Fold change /veh KRT8 (11758188_x_at) / RFU NKD1 (11759106_at) / Fold change /veh NKD1 (11759106_at) / RFU SRD5A1 (11742802_a_at) / Fold change /veh SRD5A1 (11742802_a_at) / RFU TPSAB1 /// TPSB2 (11721975_s_at) / Fold change /veh TPSAB1 /// TPSB2 (11721975_s_at) / RFU GSTM3 (11746129_a_at) / Fold change /veh GSTM3 (11746129_a_at) / RFU IL23R (11737362_x_at) / Fold change /veh IL23R (11737362_x_at) / RFU TMEM51 (11727254_a_at) / Fold change /veh TMEM51 (11727254_a_at) / RFU PIWIL2 (11732686_x_at) / Fold change /veh PIWIL2 (11732686_x_at) / RFU ORM1 (11744905_x_at) / Fold change /veh ORM1 (11744905_x_at) / RFU CCDC152 (11743942_at) / Fold change /veh CCDC152 (11743942_at) / RFU ECM1 (11717891_a_at) / Fold change /veh ECM1 (11717891_a_at) / RFU IL23R (11748794_a_at) / Fold change /veh IL23R (11748794_a_at) / RFU TNFAIP8L3 (11732012_x_at) / Fold change /veh TNFAIP8L3 (11732012_x_at) / RFU MBOAT4 (11741988_at) / Fold change /veh MBOAT4 (11741988_at) / RFU 11764193_at / Fold change /veh 11764193_at / RFU TMEM53 (11763286_at) / Fold change /veh TMEM53 (11763286_at) / RFU MAGEB2 (11727129_at) / Fold change /veh MAGEB2 (11727129_at) / RFU TMEM200A (11744735_a_at) / Fold change /veh TMEM200A (11744735_a_at) / RFU CCDC152 (11751479_a_at) / Fold change /veh CCDC152 (11751479_a_at) / RFU FAM211A (11726209_a_at) / Fold change /veh FAM211A (11726209_a_at) / RFU RGS16 (11746705_a_at) / Fold change /veh RGS16 (11746705_a_at) / RFU VCAN (11755009_s_at) / Fold change /veh VCAN (11755009_s_at) / RFU RHOB (11743442_s_at) / Fold change /veh RHOB (11743442_s_at) / RFU RGS16 (11720943_a_at) / Fold change /veh RGS16 (11720943_a_at) / RFU RGS16 (11720944_at) / Fold change /veh RGS16 (11720944_at) / RFU, VPS4B / Fold change vs veh, VPS4B / RFU, CREB1 / Fold change vs veh, CREB1 / RFU, DNAJC13 / Fold change vs veh, DNAJC13 / RFU, GNAQ / Fold change vs veh, GNAQ / RFU, CDK5R1 / Fold change vs veh, CDK5R1 / RFU, ZRANB3 / Fold change vs veh, ZRANB3 / RFU, CUL4A / Fold change vs veh, CUL4A / RFU, CCNY / Fold change vs veh, CCNY / RFU, UFL1 / Fold change vs veh, UFL1 / RFU, COG3 / Fold change vs veh, COG3 / RFU, DIAPH2 / Fold change vs veh, DIAPH2 / RFU, SKA2 / Fold change vs veh, SKA2 / RFU, AFF3 / Fold change vs veh, AFF3 / RFU, LMF1 / Fold change vs veh, LMF1 / RFU, IPO11 / Fold change vs veh, IPO11 / RFU, DFFB / Fold change vs veh, DFFB / RFU, FOXP1 / Fold change vs veh, FOXP1 / RFU, CARD8 / Fold change vs veh, CARD8 / RFU, STRN3 / Fold change vs veh, STRN3 / RFU, ADK / Fold change vs veh, ADK / RFU, RASSF2 / Fold change vs veh, RASSF2 / RFU, WIPF1 / Fold change vs veh, WIPF1 / RFU, LARP1B / Fold change vs veh, LARP1B / RFU, RASA1 / Fold change vs veh, RASA1 / RFU, RB1 / Fold change vs veh, RB1 / RFU, PPFIA1 / Fold change vs veh, PPFIA1 / RFU, MAT2A / Fold change vs veh, MAT2A / RFU, CCT5 / Fold change vs veh, CCT5 / RFU, WDR92 / Fold change vs veh, WDR92 / RFU, CUX1 / Fold change vs veh, CUX1 / RFU, TTC7A / Fold change vs veh, TTC7A / RFU, TMEM135 / Fold change vs veh, TMEM135 / RFU, DEPTOR / Fold change vs veh, DEPTOR / RFU, CPM / Fold change vs veh, CPM / RFU, DNAJB6 / Fold change vs veh, DNAJB6 / RFU, CACNA2D3 / Fold change vs veh, CACNA2D3 / RFU, DTX4 / Fold change vs veh, DTX4 / RFU, TFCP2 / Fold change vs veh, TFCP2 / RFU, GMCL1 /// GMCL1P1 / Fold change vs veh, GMCL1 /// GMCL1P1 / RFU, AEBP2 / Fold change vs veh, AEBP2 / RFU, SNHG1 /// SNORD22 /// SNORD25 /// SNORD26 /// SNORD27 /// SNORD28 /// SNORD29 /// SNORD31 / Fold change vs veh, SNHG1 /// SNORD22 /// SNORD25 /// SNORD26 /// SNORD27 /// SNORD28 /// SNORD29 /// SNORD31 / Fold change (Aza/veh), C12orf56 (ProbeSet 11735607_a_at) / Fold change (ACY-1035/veh), C12orf56 (ProbeSet 11735607_a_at) / Fold change (Aza/veh), FGFR1OP (ProbeSet 11751329_s_at) / Fold change (ACY-1035/veh), FGFR1OP (ProbeSet 11751329_s_at) / Fold change (Aza/veh), VPS36 (ProbeSet 11739960_a_at) / Fold change (ACY-1035/veh), VPS36 (ProbeSet 11739960_a_at) / RFU SYPL1 (11715823_x_at) / Fold change /veh SYPL1 (11715823_x_at) / RFU IGFBP7 (11715501_s_at) / Fold change /veh IGFBP7 (11715501_s_at) / RFU REEP3 (11722064_at) / Fold change /veh REEP3 (11722064_at) / RFU IGLL1 (11728026_x_at) / Fold change /veh IGLL1 (11728026_x_at): dose or concentration left out as unconfirmed
Conditions: ProbeSet 11732433_s_at; LIST B

Structure (SMILES): Nc1ccc(-c2cccs2)cc1NC(=O)c1ccc2c(c1)cc(C1CC1)n2CCN1CCOCC1 [ACY-1035]
- RFU, GK: 305.66 RFU
